US20090269394A1, “METHODS AND COMPOSITIONS FOR TREATING ONCHOMYCOSIS” (priority 2008, published 2009)
In brackets after ≈: the same amount, converted by molar mass. Read-outs that look alike come from different tables or passages of the source.

Assays:
[1] = tested on: Scytalydium spp.; test: MIC against rare onychomycosis pathogens (CLSI M 38-A); format: cell-based; settings: 10 isolates; NB-002 as μg CPC/ml
Text: (§1) Methods: All fungi were from patients, many of which had onychomycosis or another tinea infection.

[2] = tested on: Trichophyton soundanense; test: as above; format: cell-based; settings: 3 isolates; NB-002 as μg CPC/ml
Text: as §1

[3] = tested on: Chaetomium spp.; test: as above; format: cell-based; settings: 3 isolates; NB-002 as μg CPC/ml
Text: as §1

[4] = tested on: Curvularia spp.; test: as above; format: cell-based; settings: 3 isolates; NB-002 as μg CPC/ml
Text: as §1

[5] = tested on: Epicoccum nigrum; test: as above; format: cell-based; settings: 3 isolates; NB-002 as μg CPC/ml
Text: as §1

[6] = tested on: Scedosporium spp.; test: as above; format: cell-based; settings: 5 isolates; NB-002 as μg CPC/ml
Text: as §1

[7] = tested on: Acremonium spp.; test: as above; format: cell-based; settings: 5 isolates; NB-002 as μg CPC/ml
Text: as §1

[8] = tested on: Scopulariopsis spp.; test: as above; format: cell-based; settings: 5 isolates; NB-002 as μg CPC/ml
Text: as §1

[9] = tested on: Paecilomyces spp.; test: as above; format: cell-based; settings: 4 isolates; NB-002 as μg CPC/ml
Text: as §1

[10] = tested on: Trichophyton verrucosum; test: as above; format: cell-based; settings: 3 isolates; NB-002 as μg CPC/ml
Text: as §1

[11] = tested on: Fusarium spp.; test: as above; format: cell-based; settings: 10 isolates; NB-002 as μg CPC/ml
Text: as §1

[12] = tested on: Phoma sp.; test: as above; format: cell-based; settings: 3 isolates; NB-002 as μg CPC/ml
Text: as §1

[13] = tested on: Alternaria spp.; test: as above; format: cell-based; settings: 3 isolates; NB-002 as μg CPC/ml
Text: as §1

[14] = tested on: Aspergillus spp.; test: as above; format: cell-based; settings: 5 isolates; NB-002 as μg CPC/ml
Text: as §1

[15] = tested on: T. rubrum; test: Time-kill experiments on mycelia and microconidia; format: cell-based, Trichophyton rubrum
Description: Time-kill experiments. […] Part of the conidial suspension was pelleted and resuspended in RPMI 1640 medium and grown for 16-18 hours overnight at room temperature to allow germination of microconidia. After germination, the hyphae were collected by centrifugation and resuspended in distilled water. […] Colony-forming units were counted after four days of incubation at 35° C.

[16] = tested on: Epidermophyton floccosum; test: MIC/MFC microtiter broth dilution; format: cell-based; settings: n = 6 isolates; NB-002 as μg CPC/ml
[17] = tested on: Candida albicans isolates; test: MIC/MFC microtiter broth dilution; format: cell-based; settings: NB-002 as μg CPC/ml; for MIC90: Candida albicans, read-out: MIC90
[18] = tested on: Trichophyton mentagrophytes; test: MIC/MFC microtiter broth dilution; format: cell-based
[19] = tested on: Trichophyton rubrum; test: microbe, parasite or virus in culture; format: cell-based
Description: (§2) Phenotypically resistant isolates were tested for MICs and compared to parental MICs.

[20] = tested on: Epidermophyton floccosum; test: microbe, parasite or virus in culture; format: cell-based; settings: read-out: Final MIC
Description: as §2

[21] = tested on: Trichophyton mentagrophytes; test: microbe, parasite or virus in culture; format: cell-based
Description: as §2

[22] = Azole-Resistant isolates (n = 24)
[23] = Azole-Susceptible isolates (n = 10)
[24] = n = 14 isolates, NB-002 as μg CPC/ml

SMILES: Cc1cc(C2CCCCC2)n(O)c(=O)c1 [Ciclopirox]
- MIC range [1]: 0.5 to 1 µg/mL
- MIC range [2]: 0.125 to 0.25 µg/mL
- MIC range [3]: 0.25 to 0.5 µg/mL
- MIC range [4]: 0.5 to 1 µg/mL
- MIC range [5]: 0.125 to 2 µg/mL
- MIC range [6]: 0.5 to 8 µg/mL
- MIC range [7]: 0.5 to 4 µg/mL
- MIC range [8]: 0.5 to 2 µg/mL
- MIC range [9]: 8 to 16 µg/mL
- MIC range [10]: <=0.06-0.125 ug/ml
- MIC range [11]: 1 to 16 µg/mL
- MIC range [12]: 0.5 to 1 µg/mL
- MIC range [13]: 0.25 to 0.5 µg/mL
- MIC range [14]: 0.5 to 2 µg/mL
- reduction in colony counts ([15]; 16×MIC or 8 μg/ml, after 8 hours, nongrowing mycelia (not microconidia), isolate NBD032): 3 log
- activity against the conidial form ([15]; 16×MIC, up to 24 hours, nongrowth conditions): no activity
- MIC range [16]: 0.5 µg/mL (≈ 2.41 µM)
- MFC90 [17, 22]: >32 µg/mL
- MFC90 [17, 23]: >32 µg/mL
- MIC90 [17, 22]: 1 µg/mL (≈ 4.82 µM)
- MIC90 [17, 23]: 4 µg/mL (≈ 19.3 µM)
- MIC90 ([18]; Trichophyton mentagrophytes): 1 µg/mL (≈ 4.82 µM)
- MIC50 ([18]; Trichophyton mentagrophytes, read-out: MIC50): 0.5 µg/mL (≈ 2.41 µM)
- MFC50 [18, 24]: 1 µg/mL (≈ 4.82 µM)
- MFC90 [18, 24]: 16 µg/mL (≈ 77.2 µM)
- MIC range [18, 24]: 0.125 to 1 µg/mL
- MIC ([19]; read-out: Final MIC, isolate NBD031-a, selected on NB-002 drug plate 16 μg/ml): 4 µg/mL (≈ 19.3 µM)
- MIC ([19]; read-out: Final MIC, isolate NBD031-b, selected on itraconazole drug plate 0.125 μg/ml): 4 µg/mL (≈ 19.3 µM)
- MIC ([19]; read-out: Final MIC, isolate NBD031-c, selected on terbinafine drug plate 0.125 μg/ml): 4 µg/mL (≈ 19.3 µM)
- MIC [20]: 4 µg/mL (≈ 19.3 µM)
- MIC ([21]; read-out: Final MIC, isolate NBD012-a, selected on NB-002 drug plate 8 μg/ml): 4 µg/mL (≈ 19.3 µM)
- MIC ([21]; read-out: Final MIC, isolate NBD012-b, selected on NB-002 drug plate 16 μg/ml): 4 µg/mL (≈ 19.3 µM)
- MIC ([21]; read-out: Final MIC, isolate NBD012-c, selected on NB-002 drug plate 32 μg/ml): 4 µg/mL (≈ 19.3 µM)
- MIC ([21]; read-out: Final MIC, isolate NBD012-d, selected on terbinafine drug plate 0.0625 μg/ml): 4 µg/mL (≈ 19.3 µM)
- MIC ([21]; read-out: Final MIC, isolate NBD013-a, selected on itraconazole drug plate […]): 4 µg/mL (≈ 19.3 µM)
- MIC ([21]; read-out: Final MIC, isolate NBD014-a, selected on NB-002 drug plate 32 μg/ml): 4 µg/mL (≈ 19.3 µM)
